Measured values reported in US8735414B2 (priority 2009, dated 2014).

Tests used:
[1] = test system: bicistronic HCV replicon (replicon RNA, GenBank Accession No. AJ242654); assay: HCV Replicon Assay; format: cell-based; details: Hepatitis C virus, 72 h, read-out: Replicon IC50

| Compound | IC50 [1] | melting point |
| --- | --- | --- |
| CC(C)(NS(=O)(=O)c1ccc(-c2c(C#N)c3ccc(CC(F)F)cc3n2C2CCCC2)nc1)C(F)(F)F [compound 596, 6-[3-cyano-1-cyclopentyl-6-(2,2-difluoroethyl)-1H-indol-2-yl]-N-(1,1,1-trifluoro-2-methylpropan-2-yl)pyridine-3-sulfonamide] | < 500 nM | 194 to 199 °C |
| CSc1ccc2c(C#N)c(-c3ncc(S(=O)(=O)NC(CF)CF)cn3)n(C3CCC3)c2c1 [compound 162, 2-[3-cyano-1-cyclobutyl-6-(methylsulfanyl)-1H-indol-2-yl]-N-(1,3-difluoropropan-2-yl)pyrimidine-5-sulfonamide] | < 500 nM | 199 to 201 °C |
| CCc1cc2c(cc1F)c(C#N)c(-c1ccc(S(=O)(=O)N[C@@H](C)C(F)(F)F)cn1)n2-c1ccc(F)c(F)c1 [compound 1061, 6-[3-cyano-1-(3,4-difluorophenyl)-6-ethyl-5-fluoro-1H-indol-2-yl]-N-[(2S)-1,1,1-trifluoropropan-2-yl]pyridine-3-sulfonamide] | < 500 nM | 229 to 235 °C |
| C[C@H](NS(=O)(=O)c1ccc(-c2c(C#N)c3cc(F)c(C4CC4)cc3n2-c2ccc(F)cn2)nc1)C(F)(F)F [compound 818, 6-[3-cyano-6-cyclopropyl-5-fluoro-1-(5-fluoropyridin-2-yl)-1H-indol-2-yl]-N-[(2S)-1,1,1-trifluoropropan-2-yl]pyridine-3-sulfonamide] | < 500 nM | 240 to 242 °C |
| COc1ccc2c(C#N)c(-c3ccc(S(=O)(=O)N[C@@H](C)C(F)(F)F)cn3)n(C3CCCCC3)c2c1 [compound 519, 6-(3-cyano-1-cyclohexyl-6-methoxy-1H-indol-2-yl)-N-[(2S)-1,1,1-trifluoropropan-2-yl]pyridine-3-sulfonamide] | < 500 nM | 197 to 204 °C |
| CCc1cc2c(cc1F)c(C#N)c(-c1ccc(S(=O)(=O)N[C@@H](C)C(F)(F)F)c(C)n1)n2-c1ccccn1 [compound 887, 6-[3-cyano-6-ethyl-5-fluoro-1-(pyridin-2-yl)-1H-indol-2-yl]-2-methyl-N-[(2S)-1,1,1-trifluoropropan-2-yl]pyridine-3-sulfonamide] | < 500 nM | 219 to 224 °C |
| C[C@@H](NS(=O)(=O)c1ccc(-c2c(C#N)c3cc(F)c(C4CC4)cc3n2C2CCC2)nc1)C(F)(F)F [compound 631, 6-(3-cyano-1-cyclobutyl-6-cyclopropyl-5-fluoro-1H-indol-2-yl)-N-[(2R)-1,1,1-trifluoropropan-2-yl]pyridine-3-sulfonamide] | < 500 nM | 190 to 194 °C |
| Cc1cc2c(cc1O)c(C#N)c(-c1ccc(S(=O)(=O)NC(C)(C)C)cn1)n2C1CCC1 [compound 805, N-tert-butyl-6-(3-cyano-1-cyclobutyl-5-hydroxy-6-methyl-1H-indol-2-yl)pyridine-3-sulfonamide] | 500 to 2000 nM | 211 to 213 °C |
| C[C@H](NS(=O)(=O)c1cnc(-c2c(C#N)c3ccc(Cl)cc3n2-c2ccccn2)nc1)C(F)(F)F [compound 449] | < 500 nM | 163 to 166 °C |
| N#Cc1c(-c2ncc(S(=O)(=O)NC(CF)CF)cn2)n(C2CCCC2)c2cc(C3CC3)ccc12 [compound 173, 2-(3-cyano-1-cyclopentyl-6-cyclopropyl-1H-indol-2-yl)-N-(1,3-difluoropropan-2-yl)pyrimidine-5-sulfonamide] | < 500 nM | 215 to 219 °C |
| CCc1cc2c(cc1F)c(C#N)c(-c1ccc(S(=O)(=O)N[C@@H](C)C(F)(F)F)cn1)n2-c1ccc(F)c(Cl)c1 [compound 1062, 6-[1-(3-chloro-4-fluorophenyl)-3-cyano-6-ethyl-5-fluoro-1H-indol-2-yl]-N-[(2S)-1,1,1-trifluoropropan-2-yl]pyridine-3-sulfonamide] | < 500 nM | 228 to 232 °C |
| Cc1cc2c(cc1F)c(C#N)c(-c1ccc(S(=O)(=O)N[C@@H](C)C(F)(F)F)cn1)n2-c1cscc1C [compound 1056, 6-[3-cyano-5-fluoro-6-methyl-1-(4-methylthiophen-3-yl)-1H-indol-2-yl]-N-[(2S)-1,1,1-trifluoropropan-2-yl]pyridine-3-sulfonamide] | < 500 nM | 223.2 to 227.1 °C |
| CC(C)n1c(-c2ccc(NS(=O)(=O)C(C)(C)C)nc2)c(C#N)c2ccc(OC(F)F)cc21 [compound 299, N-{5-[3-cyano-6-(difluoromethoxy)-1-(propan-2-yl)-1H-indol-2-yl]pyridin-2-yl}-2-methylpropane-2-sulfonamide] | 2000 to 5000 nM | 263 to 264 °C |
| Cc1cc2c(cc1Cl)c(C#N)c(-c1ccc(S(=O)(=O)N[C@@H](C)C(F)(F)F)cn1)n2-c1ccc(F)cn1 [compound 804, 6-[5-chloro-3-cyano-1-(5-fluoropyridin-2-yl)-6-methyl-1H-indol-2-yl]-N-[(2S)-1,1,1-trifluoropropan-2-yl]pyridine-3-sulfonamide] | < 500 nM | 210 to 212 °C |
| Cc1ccc2c(c1)c(C#N)c(-c1ncc(S(=O)(=O)N[C@@H](C)C(F)(F)F)cn1)n2C1CCCCC1 [compound 390, 2-(3-cyano-1-cyclohexyl-5-methyl-1H-indol-2-yl)-N-[(2S)-1,1,1-trifluoropropan-2-yl]pyrimidine-5-sulfonamide] | 500 to 2000 nM | 218 to 223 °C |
| C[C@H](NS(=O)(=O)c1ccc(-c2c(C#N)c3ccc(CC(F)F)cc3n2C2CCC2)nc1)C(F)(F)F [compound 384, 6-[3-cyano-1-cyclobutyl-6-(2,2-difluoroethyl)-1H-indol-2-yl]-N-[(2S)-1,1,1-trifluoropropan-2-yl]pyridine-3-sulfonamide] | < 500 nM | 172 to 174 °C |
| C[C@H](NS(=O)(=O)c1ccc(-c2c(C#N)c3ccc(C#N)cc3n2CC2CC2)nc1)C(F)(F)F [compound 349, 6-[3,6-dicyano-1-(cyclopropylmethyl)-1H-indol-2-yl]-N-[(2S)-1,1,1-trifluoropropan-2-yl]pyridine-3-sulfonamide] | 500 to 2000 nM | 187 to 188 °C |
| CC(C)NS(=O)(=O)c1cnc(-c2c(C#N)c3ccc(CC(F)F)cc3n2C2CCCC2)nc1 [compound 598, 2-[3-cyano-1-cyclopentyl-6-(2,2-difluoroethyl)-1H-indol-2-yl]-N-(propan-2-yl)pyrimidine-5-sulfonamide] | < 500 nM | 204 to 218 °C |
| COc1cc2c(C#N)c(-c3ccc(S(=O)(=O)N[C@H](C)C(F)(F)F)cn3)n(C3CCCC3)c2cc1C [compound 694, 6-(3-cyano-1-cyclopentyl-5-methoxy-6-methyl-1H-indol-2-yl)-N-[(2R)-1,1,1-trifluoropropan-2-yl]pyridine-3-sulfonamide] | 2000 to 5000 nM | 210.5 to 211 °C |
| CCc1cc2c(cc1F)c(C#N)c(-c1ccc(S(=O)(=O)N[C@@H](C)C(F)(F)F)cn1)n2-c1cccc(Cl)c1 [compound 1018, 6-[1-(3-chlorophenyl)-3-cyano-6-ethyl-5-fluoro-1H-indol-2-yl]-N-[(2S)-1,1,1-trifluoropropan-2-yl]pyridine-3-sulfonamide] | < 500 nM | 195 to 198 °C |
